Laboratory results as given in the supplement of paper PMC10307832.

Assays:
Test in all cases: relative viability (nuclei count vs DMSO), 5 days (fraction); higher = more cells survive
COR-L23 = system: COR-L23
Outline: (§1)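 Five library-drug doses in √10 steps were combined with a fixed anchor-drug dose, or a single drug was given alone, by pin tool to lung cancer cell lines in 1536-well plates the day after seeding. Nuclei were stained and counted after 5 days. Relative viability is the nuclei count in treated wells over that in vehicle wells, taken as the median of duplicate plates.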

NCI-H1975 = system: NCI-H1975
Outline: as §1

NCI-H2342 = system: NCI-H2342
Outline: as §1

NCI-H358 = system: NCI-H358
Outline: as §1

NCI-H441 = system: NCI-H441
Outline: as §1

HARA = system: HARA
Outline: as §1

NCI-H838 = system: NCI-H838
Outline: as §1

201T = system: 201T
Outline: as §1

NCI-H23 = system: NCI-H23
Outline: as §1

BEN = system: BEN
Outline: as §1

EKVX = system: EKVX
Outline: as §1

## CCN(CC)CCCCNc1ncc2cc(-c3cc(OC)cc(OC)c3)c(NC(=O)NC(C)(C)C)nc2n1 + Cc1nc(Nc2ncc(C(=O)Nc3c(C)cccc3Cl)s2)cc(N2CCN(CCO)CC2)n1 [Dasatinib] (partner 0.075 µM)
COR-L23; first compound 0.01 µM
  relative viability: 0.527
COR-L23; first compound 0.03162 µM
  relative viability: 0.549
COR-L23; first compound 0.1 µM
  relative viability: 0.546
COR-L23; first compound 0.3162 µM
  relative viability: 0.566
COR-L23; first compound 1 µM
  relative viability: 0.608
NCI-H1975; first compound 0.01 µM
  relative viability: 0.369
NCI-H1975; first compound 0.03162 µM
  relative viability: 0.403
NCI-H1975; first compound 0.1 µM
  relative viability: 0.458
NCI-H1975; first compound 0.3162 µM
  relative viability: 0.452
NCI-H1975; first compound 1 µM
  relative viability: 0.313
NCI-H2342; first compound 0.01 µM
  relative viability: 0.296
NCI-H2342; first compound 0.03162 µM
  relative viability: 0.345
NCI-H2342; first compound 0.1 µM
  relative viability: 0.321
NCI-H2342; first compound 0.3162 µM
  relative viability: 0.332
NCI-H2342; first compound 1 µM
  relative viability: 0.31
NCI-H358; first compound 0.01 µM
  relative viability: 0.169
NCI-H358; first compound 0.03162 µM
  relative viability: 0.127
NCI-H358; first compound 0.1 µM
  relative viability: 0.157
NCI-H358; first compound 0.3162 µM
  relative viability: 0.147
NCI-H358; first compound 1 µM
  relative viability: 0.198
NCI-H441; first compound 0.01 µM
  relative viability: 0.68
NCI-H441; first compound 0.03162 µM
  relative viability: 0.572
NCI-H441; first compound 0.1 µM
  relative viability: 0.604
NCI-H441; first compound 0.3162 µM
  relative viability: 0.775
NCI-H441; first compound 1 µM
  relative viability: 0.554
HARA; first compound 0.01 µM
  relative viability: 0.284
HARA; first compound 0.03162 µM
  relative viability: 0.246
HARA; first compound 0.1 µM
  relative viability: 0.312
HARA; first compound 0.3162 µM
  relative viability: 0.142
HARA; first compound 1 µM
  relative viability: 0.237
NCI-H838; first compound 0.01 µM
  relative viability: 0.259
NCI-H838; first compound 0.03162 µM
  relative viability: 0.305
NCI-H838; first compound 0.1 µM
  relative viability: 0.307
NCI-H838; first compound 0.3162 µM
  relative viability: 0.305
NCI-H838; first compound 1 µM
  relative viability: 0.246
201T; first compound 0.01 µM
  relative viability: 0.553
201T; first compound 0.03162 µM
  relative viability: 0.568
201T; first compound 0.1 µM
  relative viability: 0.677
201T; first compound 0.3162 µM
  relative viability: 0.568
201T; first compound 1 µM
  relative viability: 0.635
NCI-H23; first compound 0.01 µM
  relative viability: 0.795
NCI-H23; first compound 0.03162 µM
  relative viability: 1
NCI-H23; first compound 0.1 µM
  relative viability: 0.904
NCI-H23; first compound 0.3162 µM
  relative viability: 0.925
NCI-H23; first compound 1 µM
  relative viability: 0.878
BEN; first compound 0.01 µM
  relative viability: 0.298
BEN; first compound 0.03162 µM
  relative viability: 0.282
BEN; first compound 0.1 µM
  relative viability: 0.359
BEN; first compound 0.3162 µM
  relative viability: 0.353
BEN; first compound 1 µM
  relative viability: 0.26
EKVX; first compound 0.01 µM
  relative viability: 0.547
EKVX; first compound 0.03162 µM
  relative viability: 0.604
EKVX; first compound 0.1 µM
  relative viability: 0.57
EKVX; first compound 0.3162 µM
  relative viability: 0.563
EKVX; first compound 1 µM
  relative viability: 0.349
